In US6075120A (priority 1995, dated 2000):
Square brackets hold non-standard residues; d marks the D form. Peptide text beside a SMILES is read from it. * marks the point of attachment. X1 = CN1CC[C@]23c4c5ccc(O)c4O[C@H]2C(NCCSC2CC(=O)N(CCCCCCN4C(=O)CC(*)C4=O)C2=O)CC[C@@]3(O)[C@H]1C5; Hyp = O=C(O)[C@@H]1C[C@@H](O)CN1

Assays:
[1] = test system: mice injected in the hind limb foot pad with formalin; assay: mouse formalin test (inflammatory and neurogenic pain, hind limb licking); type: in vivo; settings: for narcotic / behavioral side effects observed in the formalin test: oxymorphone at highest doses 0.9 and 3.0 umoles/kg, CP-0494 over several hours
Protocol: In order to test the activity of these compounds in vivo, a model of inflammatory and neurogenic pain was used. This model measures the behavioral responses of mice injected in the hind limb foot pad with 50 ul of formalin. Control mice (open circles) show a characteristic bi-phasic response to the injected formalin wherein there is a short lasting initial response followed by a quiescent period which is then followed by a sustained period of hind limb licking. The licking behavior is interpreted to mean that the limb is irritated and painful. The greater the time spent licking, the more painful the stimulus.

[2] = freshly obtained normal human plasma; settings: 37° C.
[3] = target: T1, BK2 -receptor (Rattus norvegicus, UniProt P25023); assay: rat uterus assay of bradykinin antagonist (BKAn) activity; type: cell-based; settings: bradykinin induced uterine contraction
T1 construct: BKAn activity (pA2) was assessed using the rat uterus preparation; from tissue; host or cells: rat uterus
T1 sequence (P25023 1-396): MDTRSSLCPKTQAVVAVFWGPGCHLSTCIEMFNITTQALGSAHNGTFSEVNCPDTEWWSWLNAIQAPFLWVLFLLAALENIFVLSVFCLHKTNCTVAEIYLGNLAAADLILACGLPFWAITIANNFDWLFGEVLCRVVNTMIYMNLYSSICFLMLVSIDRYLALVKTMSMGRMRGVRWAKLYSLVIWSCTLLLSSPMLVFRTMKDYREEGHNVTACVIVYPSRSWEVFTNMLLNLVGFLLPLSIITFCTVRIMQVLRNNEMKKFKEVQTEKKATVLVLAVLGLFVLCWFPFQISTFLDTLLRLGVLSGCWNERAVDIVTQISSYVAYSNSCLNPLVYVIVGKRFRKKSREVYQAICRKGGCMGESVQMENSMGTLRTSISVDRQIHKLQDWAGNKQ

[4] = target: T2, purified human neutrophil elastase (HNE) (Homo sapiens, UniProt P08246); assay: neutrophil elastase inhibition with chromogenic substrate MOS-AAPV-pNA; type: biochemical; settings: MOS-AAPV-pNA 0.5 mM, HNE 10-20 nM, pH 7.5, 25 C; read-out: Ki^ss (HNE)
T2 sequence (P08246 30-247 limits assumed): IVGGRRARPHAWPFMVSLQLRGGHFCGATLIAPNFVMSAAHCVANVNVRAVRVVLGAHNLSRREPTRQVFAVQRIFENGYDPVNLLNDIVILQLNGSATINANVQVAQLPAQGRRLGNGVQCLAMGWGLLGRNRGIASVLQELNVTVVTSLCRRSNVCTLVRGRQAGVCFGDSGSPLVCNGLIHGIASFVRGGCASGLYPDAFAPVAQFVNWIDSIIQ

[5] = test system: cyclooxygenase; assay: rat lung parenchymal strips challenged with arachidonic acid; type: cell-based; settings: contraction in response to exogenously applied arachidonic acid
From the text: As mentioned previously, for the COI to work it may need to be dissociated from the BKAn so as to allow for its intracellular penetration. Therefore, in order to evaluate the functional activity of a BKAn/COI heterodimer, CP-0460 was exposed to rat lung parenchymal strips which were then challenged with arachidonic acid. This tissue is known to contain both non-specific esterase activity as well as to convert arachidonic acid to thromboxane (via a cyclooxygenase dependent pathway) which is then ultimately responsible for the smooth muscle contraction observed in this assay.

CN1CC[C@]23c4c5ccc(O)c4O[C@H]2C(=O)CC[C@@]3(O)[C@H]1C5 [oxymorphone]
effect on licking behavior in both phases of the formalin test ([1]; 50 ul formalin in hind limb foot pad): reduces both phases of the licking behavior
narcotic / behavioral side effects observed in the formalin test [1]: significant behavioral obtundation resulting in catalepsy and frank respiratory depression

DR-R-P-J-G-F-C-DF-L-R
cleaved bond [2]: Leu8-Arg9

CC(C)(C)c1ccc(C(C)(C)C(=O)Oc2ccc(S(=O)(=O)CCCC(=O)O)cc2)cc1 [CE-1218, 4-(3'-carboxy-propylsulfonyl)phenyl 4-tert-butylphenylisobutyrate]
pA2 --Rat Uterus [3]: inactive
Ki [4]: 10.5 nM

COc1ccc2c(c1)c(CC(=O)O)c(C)n2C(=O)c1ccc(Cl)cc1 [indomethacin]
pA2 --Rat Uterus [3]: no effect
log dose ratio shift [5]: 0.998±0.425

CC(C)C[C@H](NC(=O)[C@@H](Cc1ccccc1)NC(=O)[C@H](CSC1CC(=O)N(CCCCCCN2C(=O)CC(SCCNC3CC[C@@]4(O)[C@H]5Cc6ccc(O)c7c6[C@@]4(CCN5C)[C@H]3O7)C2=O)C1=O)NC(=O)[C@H](Cc1ccccc1)NC(=O)CNC(=O)[C@@H]1C[C@@H](O)CN1C(=O)[C@@H]1CCCN1C(=O)[C@H](CCCNC(=N)N)NC(=O)[C@H](N)CCCNC(=N)N)C(=O)N[C@@H](CCCNC(=N)N)C(=O)O (some centres unmarked) [CP-0494] (H-[dR]RP[Hyp]GFC(X1)[dF]LR-OH)
narcotic / behavioral side effects observed in the formalin test [1]: no observable narcotic effects
